Experiment: UV absorbance (UV spectra), sunscreen properties
Format: physicochemical
From the text: FIG. 1 through 8 show UV spectra of 111 compounds sharing PABA “hot building block”, their 16 synthetic intermediates, and one compound with salicylic acid building block. Reference numerals identify compounds according to the numbering adopted in the Experimental section and elsewhere in the specification.
UV-B (290-320 nm) radiation is known to be harmful for human skin. Acute negative effects include inflammation, sunburns, pigmentation changes and hyperplasia. Chronic negative effects include photoaging, immunosuppression and photocarcinogenesis, including squamous cells, basal cells and melanoma skin cancer. The UV-B radiation is also responsible for 98% of cases of delayed erythema development.
Various sunscreen agents have been developed to protect human skin from this harmful UV-B radiation. One known class of such UV-B sunscreen agents is PABA and its various derivatives. Their UV-protecting properties are due to their strong UV absorbance (e266=15,000 for p-aminobenzoic acid). […] As such, these compounds are useful as sunscreen agents.

Nc1ccc(C(=O)O)cc1 [Compound (59), 4-Aminobenzoic acid]
UV absorbance e266: 15,000
